Values after ≈ are worked out from the molar mass of the structure shown. Where two headings read alike, the source gives them in different places. Blank lines part the entries; values can stand above or below the molecule they belong to.
Legend:
[1] = test system: M. mycetomatis genome strain MM55; assay: CLSI M38-A2 based in vitro susceptibility screening (XTT or resazurin), growth at fixed concentration; type: cell-based, Madurella mycetomatis; settings: Madurella mycetomatis
[2] = test system: Me. romeroi strain CBS128765; assay: CLSI M38-A2 based in vitro susceptibility screening at 25 μM; type: cell-based, Medicopsis romeroi; settings: selected if >75% (resazurin) or >80% (XTT) fungal growth inhibited
M. mycetomatis MM55 = assay: IC50 determination, 2-fold dilution series 16 to 0.03125 μM; type: cell-based, Madurella mycetomatis; settings: for IC50 / IC90: Madurella mycetomatis
[3] = test system: ten different M. mycetomatis isolates; assay: MIC / MIC50 determination (XTT) in ten M. mycetomatis isolates; type: cell-based, Madurella mycetomatis; settings: Madurella mycetomatis
[4] = test system: M. mycetomatis isolate MM55; assay: M. mycetomatis grain infection model in G. mellonella larvae, survival; type: in vivo, Galleria mellonella; design: In vivo efficacy, Larvae survival %: concentration or dose not given beside the values; settings: for Effect on larvae survival Day 4 (words) / Effect on larvae survival Day 10 (words): 20 μM per larvae, vs infected control; for Effect on larvae survival Day 4 (words): day four
[5] = test system: ten different M. mycetomatis isolates; design: method as in PMID 24945848, PMID 22964246, PMID 31904836; settings: asterisk: determined in previous works ref 19-21; cited from earlier work
[6] = test system: F. senegalensis strain CBS132257; assay: CLSI M38-A2 based in vitro susceptibility screening at 25 μM; type: cell-based, Falciformispora senegalensis; settings: selected if >75% (resazurin) or >80% (XTT) fungal growth inhibited
[7] = MM55, Table 2, M. mycetomatis MM55, read-out: IC50
[8] = G. mellonella larvae infected with M. mycetomatis
[9] = 25 uM, mean, read-out: Percentage survival at 25um, 25 uM mean
[10] = 25 uM, replicate A, read-out: Percentage survival at 25um, 25 um A
[11] = 25 uM, replicate B, read-out: Percentage survival at 25um, 25 uM B
[12] = 25 uM, replicate C, read-out: Percentage survival at 25um, 25 uM C
[13] = mean, read-out: Percentage survival at 100um, 100 uM mean
[14] = replicate (first column), read-out: Percentage survival at 100um, 100 uM A
[15] = replicate (second column), read-out: Percentage survival at 100um, 100 uM A
[16] = replicate (third column), read-out: Percentage survival at 100um, 100 uM A
[17] = MM55, replicate 1, read-out: IC50 1
[18] = MM55, replicate 1, read-out: IC90 1
[19] = MM55, replicate 2, read-out: IC50 2
[20] = MM55, replicate 2, read-out: IC90 2
[21] = MM55, replicate 3, read-out: IC50 3
[22] = MM55, replicate 3, read-out: IC90 3

SMILES: COC(=O)Nc1nc2ccccc2[nH]1 [MMV344625, Carbendazim]
activity at 25 µM ([1]; 25 uM, replicate A, M. mycetomatis MM55, read-out: Percentage survival at 25um, 25 um A): 1.64%
activity at 100 µM ([1]; mean of three, M. mycetomatis MM55, read-out: Percentage survival at 100um, 100 uM mean): 8.48%
activity at 100 µM ([1]; replicate 1, M. mycetomatis MM55, read-out: Percentage survival at 100um, 100 uM A (first replicate column)): 0.376%
activity at 100 µM ([1]; replicate 2, M. mycetomatis MM55, read-out: Percentage survival at 100um, 100 uM A (second replicate column)): 3.66%
activity at 100 µM ([1]; replicate 3, M. mycetomatis MM55, read-out: Percentage survival at 100um, 100 uM A (third replicate column)): 21.4%
activity at 25 µM ([1]; read-out: Percentage survival at 25um, 25 uM B): 6.23%
activity at 25 µM ([1]; read-out: Percentage survival at 25um, 25 uM C): 2.7%
activity at 25 µM ([1]; read-out: Percentage survival at 25um, 25 uM mean): 3.52%
Inhibits growth of Medicopsis romeroi at 25 μM [2]: inhibit the growth
Drug static or cidal (M. mycetomatis MM55; M. mycetomatis): Static
IC50 (M. mycetomatis MM55; [7]): 1.32 µM
IC50 (M. mycetomatis MM55; MM55, mean of replicates, read-out: IC50 mean): 1.32 µM
IC50 (M. mycetomatis MM55; MM55, replicate 1, read-out: IC50 1 um): 2.28 µM
IC90 (M. mycetomatis MM55; MM55, replicate 1, read-out: IC90 1 um): 4.72 µM
IC50 (M. mycetomatis MM55; MM55, replicate 2, read-out: IC50 2 um): 0.7 µM
IC90 (M. mycetomatis MM55; MM55, replicate 2, read-out: IC90 2 um): 1.5 µM
IC50 (M. mycetomatis MM55; MM55, replicate 3, read-out: IC50 3 um): 0.97 µM
IC90 (M. mycetomatis MM55; MM55, replicate 3, read-out: IC90 3 um): > 25 µM
MIC50 ([3]; Table 3 and Fig 5, benzimidazole carbamates, M. mycetomatis, read-out: MIC50): 0.5 µM (≈ 0.0956 µg/mL)
MIC50 ([3]; median MIC over ten M. mycetomatis isolates, no asterisk, read-out: MIC50): 0.5 µM (≈ 0.0956 µg/mL)
MIC50 ([3]; over the tested M. mycetomatis isolates, read-out: MIC50 mean): 0.5 µM (≈ 0.0956 µg/mL)
MIC ([3]; isolate CBS247.48, read-out: MIC CBS247.48): 0.5 µM (≈ 0.0956 µg/mL)
MIC ([3]; isolate MM14, read-out: MIC MM14): < 0.0312 µM
MIC ([3]; isolate MM45, read-out: MIC MM45): 1 µM (≈ 0.191 µg/mL)
MIC ([3]; isolate MM55, read-out: MIC MM55): 0.5 µM (≈ 0.0956 µg/mL)
MIC ([3]; isolate P1, read-out: MIC P1): 0.5 µM (≈ 0.0956 µg/mL)
MIC ([3]; isolate ParijsAl1, read-out: MIC ParijsAl1): 1 µM (≈ 0.191 µg/mL)
MIC ([3]; isolate Peru72012, read-out: MIC Peru72012): 1 µM (≈ 0.191 µg/mL)
MIC ([3]; isolate So1, read-out: MIC So1): 0.5 µM (≈ 0.0956 µg/mL)
MIC ([3]; isolate i1, read-out: MIC i1): 0.5 µM (≈ 0.0956 µg/mL)
MIC ([3]; isolate i11, read-out: MIC i11): 2 µM (≈ 0.382 µg/mL)
Effect on larvae survival Day 4 (words) [4]: Increase survival
Effect on larvae survival Day 4 (words) ([4]; listed as carbendazim): significantly increase larvae survival
Effect on larvae survival Day 10 (words) ([4]; day ten): No
In vivo efficacy, Enhanced survival compared to control? [4, 8]: no
In vivo efficacy, Larvae survival % [4, 8]: 6.7%

IC50 (M. mycetomatis MM55; [7]): 0.07 µM
IC50 (M. mycetomatis MM55; [17]): < 0.098 µM
IC90 (M. mycetomatis MM55; [18]): 0.18 µM
IC50 (M. mycetomatis MM55; [19]): < 0.098 µM
IC90 (M. mycetomatis MM55; [20]): < 0.098 µM
IC50 (M. mycetomatis MM55; [21]): 0.38 µM
IC90 (M. mycetomatis MM55; [22]): 1.05 µM
SMILES: CC(=O)N1CCN(c2ccc(OCC3COC(Cn4ccnc4)(c4ccc(Cl)cc4Cl)O3)cc2)CC1 (centres unmarked) [MMV637533, Ketoconazole, reference compound]
activity at 25 µM [1, 9]: -0.0796%
activity at 25 µM [1, 10]: 1.08%
activity at 25 µM [1, 11]: -3.63%
activity at 25 µM [1, 12]: 2.31%
activity at 100 µM [1, 13]: 5.46%
activity at 100 µM [1, 14]: 1.43%
activity at 100 µM [1, 15]: 7.48%
activity at 100 µM [1, 16]: 7.47%
Drug static or cidal (M. mycetomatis MM55): Cidal
MIC50 [5]: 0.13 µM (≈ 0.0691 µg/mL)
MIC range [5]: 0.06 to 1.9 µM

IC50 (M. mycetomatis MM55; [7]): 0.01 µM
IC50 (M. mycetomatis MM55; MM55, mean, read-out: IC50 mean): < 0.098 µM
IC50 (M. mycetomatis MM55; [17]): < 0.098 µM
IC90 (M. mycetomatis MM55; [18]): < 0.098 µM
IC50 (M. mycetomatis MM55; [19]): 1.04 µM
IC90 (M. mycetomatis MM55; [20]): 4 µM
IC50 (M. mycetomatis MM55; [21]): < 0.098 µM
IC90 (M. mycetomatis MM55; [22]): 2.75 µM
SMILES: C[C@@H](c1nc(-c2ccc(C#N)cc2)cs1)[C@](O)(Cn1cncn1)c1ccc(F)cc1F [MMV1634362, Ravuconazole]
activity at 25 µM [1, 9]: -1.1%
activity at 25 µM [1, 10]: -3.16%
activity at 25 µM [1, 11]: -3.36%
activity at 25 µM [1, 12]: 3.22%
activity at 100 µM [1, 13]: 4.1%
activity at 100 µM [1, 14]: -3.18%
activity at 100 µM [1, 15]: 5.51%
activity at 100 µM [1, 16]: 9.97%
Inhibits growth of Falciformispora senegalensis at 25 μM [6]: neither F. senegalensis nor Me. romeroi growth were inhibited
Inhibits growth of Medicopsis romeroi at 25 μM [2]: neither F. senegalensis nor Me. romeroi growth were inhibited
Drug static or cidal (M. mycetomatis MM55): Cidal
Larvae survival rate on day ten ([4]; 20 μM per larvae at 4, 28, 52 h after infection, day ten): 26.7%
Effect on larvae survival Day 4 (words) [4]: prolonged larvae survival
Effect on larvae survival Day 10 (words) ([4]; day ten): able to prolong larvae survival
In vivo efficacy, Enhanced survival compared to control? ([4]; in vivo): yes *
In vivo efficacy, Larvae survival % ([4]; in vivo): 26.7%
MIC50 [5]: 0.01 µM (≈ 0.00437 µg/mL)
MIC range [5]: 0.004 to 0.06 µM

Reference: paper PMC8815882, “Screening the pandemic response box identified benzimidazole carbamates, Olorofim and ravuconazole as promising drug candidates for the treatment of eumycetoma” (PLoS Neglected Tropical Diseases, 2022)
